Measurements from patent US11230525B2, “Organic sulfur compound, method for preparing same, and pharmaceutical composition for preventing or treating cancer or an inflammatory disease, containing same as active ingredient” (SOOKMYUNG WOMENS UNIVERSITY INDUSTRY-ACADEMIC COOPERATION …, priority 2016, dated 2022).

Assays:
[1] = system: gastric cancer cell line (NUGC-3); experiment: Cancer proliferation inhibitory activity (SRB, GI50), NUGC-3; type: cell-based; settings: Homo sapiens, 48 hours
Source text: (§1) Particularly, the cancer proliferation inhibitory activity of the compounds of comparative examples (Ajoene and the compounds isosteric to Ajoene wherein R1 is allyl or benzyl) and the compounds of examples of the present invention (the compounds not isosteric to Ajoene wherein R^1 is phenyl) was investigated in human cancer cell lines (renal cancer cell line (ACHN), breast cancer cell line (MDA-MB-231), colorectal cancer cell line (HCT-15), prostate cancer cell line (PC-3), gastric cancer cell line (NUGC-3) and lung cancer cell line (NCl-H23)).
(§2) At this time, the cancer cell lines (renal cancer cell line (ACHN), breast cancer cell line (MDA-MB-231), colorectal cancer cell line (HCT-15), prostate cancer cell line (PC-3), gastric cancer cell line (NUGC-3) and lung cancer cell line (NCl-H23)) above were purchased from American Type Culture Collection (Manassas, Va., USA). Cells were cultured in RPMI 1640 supplemented with 10% fetal bovine serum, which were maintained 37° C. under 5% CO2 wet atmosphere. The cells were distributed in a 96-well plate, which was not treated (treated only with 0.1% DMSO) or treated with the compounds of examples of the present (0.1 μM to 10 μM). 48 hours later, the cells were fixed in 50% trichloroacetic acid, followed by staining with 1% acetic acid containing 0.4% sulphorodamine B dissolved therein. The non-conjugated dye was removed by washing with 1% acetic acid, and the protein conjugated dye was extracted with 10 mM Tris base (pH 10.5). Then, OD540 was measured with VersaMax microplate reader (Molecular devices, Sunnyvale, Calif., USA). GI50 was calculated by using GraphPad Prism software (GraphPad Software, Inc., San Diego, Calif., USA).
(§3) Based on the results obtained in experimental example 1-1 above, the derivatives wherein R^1 is phenyl were additionally synthesized. The cancer proliferation inhibitory activity of the derivatives was evaluated by the same manner as described in experimental example 1-1.

[2] = system: prostate cancer cell line (PC-3); experiment: Cancer proliferation inhibitory activity (SRB, GI50), PC-3; type: cell-based; settings: Homo sapiens, 48 hours
Source text: as §1, §2, §3

[3] = system: renal cancer cell line (ACHN); experiment: Cancer proliferation inhibitory activity (SRB, GI50), ACHN; type: cell-based; settings: Homo sapiens, 48 hours
Source text: as §1, §2, §3

[4] = system: colorectal cancer cell line (HCT-15); experiment: Cancer proliferation inhibitory activity (SRB, GI50), HCT-15; type: cell-based; settings: Homo sapiens, 48 hours
Source text: as §1, §2, §3

[5] = system: lung cancer cell line (NCl-H23); experiment: Cancer proliferation inhibitory activity (SRB, GI50), NCI-H23; type: cell-based; settings: Homo sapiens, 48 hours
Source text: as §1, §2, §3

HDAC 8 = target: T1, HDAC 8 (Homo sapiens, UniProt Q9BY41); experiment: HDAC enzyme fluorescence assay, HDAC 8; type: biochemical; set-up: Inhibitory activity (%) HDAC 8: concentration or dose not given beside the values; settings: (HDAC inhibitory activity of example compound/HDAC inhibitory activity of SAHA) × 100
T1 sequence (Q9BY41 1-377): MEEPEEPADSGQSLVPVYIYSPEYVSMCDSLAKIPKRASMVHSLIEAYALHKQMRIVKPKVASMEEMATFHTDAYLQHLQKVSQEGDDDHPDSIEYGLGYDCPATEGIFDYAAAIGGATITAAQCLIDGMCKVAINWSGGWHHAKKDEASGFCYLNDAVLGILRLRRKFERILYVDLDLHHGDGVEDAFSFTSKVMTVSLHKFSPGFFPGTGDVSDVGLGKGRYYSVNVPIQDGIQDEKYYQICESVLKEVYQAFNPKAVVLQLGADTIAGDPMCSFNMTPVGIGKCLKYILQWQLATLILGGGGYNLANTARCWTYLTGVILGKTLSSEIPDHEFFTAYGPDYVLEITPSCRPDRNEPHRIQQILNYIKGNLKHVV
Experimental: Particularly, HDAC enzyme analysis was performed based on a uniform fluorescence emission assay. First, the compounds of examples of the present invention or comparative example 1 were diluted at different concentrations, which were treated to the analysis buffer containing 25 mM HEPES (pH 8.0), 137 mM NaCl, 1 mM MgCl2 and 2.7 mM KCL, followed by culture of the recombinant HDAC enzyme. 10 minutes later, Boc-Lys(acetyl)-AMC, the fluorescence inducing substrate, was added thereto, followed by further culture at 37° C. At this time, the concentration of the fluorescence inducing substrate and the culture time were adjusted according to the isotypes of the HDAC enzyme. The reaction was terminated by treating trypsin at room temperature for 20 minutes. The fluorescence intensity was measured using a fluorescence analyzer at an excitation wavelength of 380 nm and an emission wavelength of 460 nm, respectively. The inhibition rate was calculated from the measured fluorescence intensity of each well with comparing to that of the control well. IC50 of the compound was calculated by analyzing the dose-reaction inhibition curve.
The HDAC 8 inhibitory activity was presented as percentage of relative activity by the inhibitory activity of SAHA (Vorinostat) used as a reference compound.

[6] = system: breast cancer cell line (MDA-MB-231); experiment: Cancer proliferation inhibitory activity (SRB, GI50), MDA-MB-231; type: cell-based; settings: Homo sapiens, 48 hours
Source text: as §1, §2, §3

| SMILES | GI50 [1] | GI50 [2] | GI50 [3] | GI50 [4] | GI50 [5] | Inhibitory activity (%) HDAC 8 (HDAC 8) | GI50 [6] |
| --- | --- | --- | --- | --- | --- | --- | --- |
| COc1cccc([S+]([O-])C/C=C/SSCc2ccc(Cl)cc2)c1 (stereo not shown) [Example 23, (E)-1-(4-chlorobenzyl)-2-(3-(3-methoxyphenylsulfinyl)prop-1-enyl)disulfane] | 5.92 µM | 3.76 µM | 5.47 µM | 4.37 µM | 4.85 µM | 72.6% | 3.12 µM |
| COc1ccc([S+]([O-])C/C=C/SSCc2ccc(Cl)c(Cl)c2)cc1 (stereo not shown) [Example 37, (E)-1-(3,4-dichlorobenzyl)-2-(3-(4-methoxyphenylsulfinyl)prop-1-enyl)disulfane] | 5.48 µM | 5.17 µM | 3.75 µM | 3.32 µM | 3.09 µM | 106.1% | 4.19 µM |
| C=CCSS/C=C/C[S+]([O-])c1ccc(OC)cc1 (stereo not shown) [Example 27, (E)-1-allyl-2-(3-(4-methoxyphenylsulfinyl)prop-1-enyl)disulfane] | 4.62 µM | 4.38 µM | 3.86 µM | 6.61 µM | 3.91 µM | 39.8% | 5.62 µM |
| COc1ccc([S+]([O-])C/C=C\SSCc2ccc(Cl)c(Cl)c2)cc1 (stereo not shown) [Example 38, (Z)-1-(3,4-dichlorobenzyl)-2-(3-(4-methoxyphenylsulfinyl)prop-1-enyl)disulfane] | 4.61 µM | 4.36 µM | 5.19 µM | 7.18 µM | 3.33 µM | 55.5% | 2.07 µM |

Now from value to molecule:

| GI50 [1] | GI50 [2] | GI50 [3] | GI50 [4] | GI50 [5] | Inhibitory activity (%) HDAC 8 (HDAC 8) | GI50 [6] | SMILES |
| --- | --- | --- | --- | --- | --- | --- | --- |
| 1.66 µM | 4.24 µM | 2.72 µM | 2.33 µM | 2.03 µM | 73.8% | 3.58 µM | COc1ccc(CSS/C=C\C[S+]([O-])c2ccccc2)cc1 (stereo not shown) [Example 10, (Z)-1-(4-methoxybenzyl)-2-(3-(phenylsulfinyl)prop-1-enyl)disulfane] |
| 1.43 µM | 2.72 µM | 2.94 µM | 3.03 µM | 1.45 µM | 48.7% | 1.54 µM | COc1ccc(CSS/C=C/C[S+]([O-])c2ccccc2)cc1 (stereo not shown) [Example 9, (E)-1-(4-methoxybenzyl)-2-(3-(phenylsulfinyl)prop-1-enyl)disulfane] |
| 3.67 µM | 3.04 µM | 3.85 µM | 3.01 µM | 2.71 µM | 122.9% | 4.41 µM | COc1cccc([S+]([O-])C/C=C\SSCc2ccc(F)cc2)c1 (stereo not shown) [Example 22, (Z)-1-(4-fluorobenzyl)-2-(3-(3-methoxyphenylsulfinyl)prop-1-enyl)disulfane] |
| 2.84 µM | 2.28 µM | 2.41 µM | 1.62 µM | 2.19 µM | 98.7% | 1.78 µM | COc1ccc([S+]([O-])C/C=C\SSCc2ccc(Cl)cc2)cc1 (stereo not shown) [Example 36, (Z)-1-(4-chlorobenzyl)-2-(3-(4-methoxyphenylsulfinyl)prop-1-enyl)disulfane] |
| 3.24 µM | 4.99 µM | 2.95 µM | 5.48 µM | 3.51 µM | 105.4% | 2.26 µM | [O-][S+](C/C=C\SSCc1ccc(Cl)cc1)c1ccccc1 (stereo not shown) [Example 12, (Z)-1-(4-chlorobenzyl)-2-(3-(phenylsulfinyl)prop-1-enyl)disulfane] |
| 1.56 µM | 1.97 µM | 2.46 µM | 1.75 µM | 2.12 µM | 109.2% | 2.02 µM | COc1cccc([S+]([O-])C/C=C/SSCc2ccc(F)cc2)c1 (stereo not shown) [Example 21, (E)-1-(4-fluorobenzyl)-2-(3-(3-methoxyphenylsulfinyl)prop-1-enyl)disulfane] |
